# What was measured:
# Format in all cases: cell-based
# [1] = tested on: hepatocellular carcinoma cell line Hep3B; assay: Growth inhibition of Hep3B cells, 48 hr treatment, Hoechst 33342 nucleus count (GE InCell 2200); settings: Homo sapiens, Table 5, ratio of number of tumor cells treated with 10 μM compound to non-treated cells
# Procedure, shortened: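 Compound exposure lasted 48 hr at 37° C, 5% CO2. Surviving nuclei were counted after Hoechst 33342 staining, and survival was expressed as the treated/non-treated cell number ratio, including the ratio at 10 μM compound.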
# [2] = tested on: Hep3B hepatocellular carcinoma cell line; assay: MTS cell viability assay (NCI-60 methodology), GI50/LC50, Hep3B; settings: Homo sapiens, 48 h, Hep3B cells, 2 days incubation with compound
# Procedure: (§1) The number of treated cells was determined by GE InCell 2200 system, and treated cells were stained with Hoechst 33342 which can reveal the remained nucleus in culture plate. The proportion of survival cells then were calculated with the ratio of treated/non-treated cells. The growth inhibition/cytotoxic effect of selected compounds were evaluated by the following protocol of NCI-60 screening platform. The human tumor cell lines are plating on a 96 well plate in a fixed density 24 hr prior compound treatment. Compounds with multiple concentrations are then added into each well for further 48 hr incubation. Cell viability is assessed by MTS method and the potency of compound is represented by GI50 and LC50 calculated by MTS result.
# (§2) The cell viability measurement is based on the NCI-60 screening methodology (Nat. Rev. Cancer 6, 813-823, 2006). Briefly, cells are inoculated into 96-well plates at the optimal plating density. After 24 h, one of the two plates for each cell line is processed to determine a time zero cell viability (Tz) by MTS assay (Promega). Compounds are added over a 2-fold serial dilution to provide a total five drug concentrations plus DMSO control. Plates are incubated for a further 2 days, then measured cell viability by MTS assay [control growth (C) and test growth in the presence of drug at the five concentration levels (Ti)]. Growth inhibition of 50% (GI50) is calculated from [(Ti−Tz)/(C−Tz)]×100=50, which is the drug concentration resulting in a 50% reduction of control cells during the drug incubation. The LC50 is calculated from [(Ti−Tz)/Tz]×100=−50, which is the drug concentration resulting in a 50% reduction at the end of the drug treatment as compared to that at the beginning.
# (§3) Herein, Hep3B refers to hepatocellular carcinoma cell line, SW480 refers to colon adenocarcinoma cell line, and NCI-H460 refers to human lung cancer cell line.
# [3] = tested on: SW480 colon adenocarcinoma cell line; assay: MTS cell viability assay (NCI-60 methodology), GI50/LC50, SW480; settings: Homo sapiens, 48 h, SW480 cells, 2 days incubation with compound
# Procedure: as §1, §2, §3
# [4] = tested on: NCI-H460 human lung cancer cell line; assay: MTS cell viability assay (NCI-60 methodology), GI50/LC50, NCI-H460; settings: 48 h, NCI-H460 cells, 2 days incubation with compound
# Procedure: as §1, §2, §3
SMILES,viability at 10 µM [1],GI50 [2],LC50 [2],GI50 [3],"LC50 (NCI-60 lethal concentration, 50% net cell loss vs time zero) [3]",GI50 [4],"LC50 (concentration giving 50% net cell loss versus time zero, NCI-60 definition) [4]"
"CCCOc1ccc(-c2nc(NC(=O)c3ccc([N+](=O)[O-])s3)sc2Oc2cccc(F)c2)cc1 [Compound 5-24, N-(5-(3-fluorophenoxy)-4-(4-propoxyphenyl)thiazol-2-yl)-5-nitrothiophene-2-carboxamide]",28%,950 nM,2070 nM,1140 nM,4230 nM,1570 nM,3790 nM
"CCCOc1ccc(-c2nc(NC(=O)c3ccc([N+](=O)[O-])s3)sc2Oc2ccc(C(F)(F)F)cc2)cc1 [Compound 5-26, 5-nitro-N-(4-(4-propoxyphenyl)-5-(4-(trifluoromethyl)phenoxy)thiazol-2-yl)thiophene-2-carboxamide]",24%,830 nM,1180 nM,1050 nM,3440 nM,1150 nM,3200 nM
"CCCOc1ccc(-c2nc(NC(=O)c3ccc([N+](=O)[O-])s3)sc2Oc2ccc(Br)cc2)cc1 [Compound 5-27, N-(5-(4-bromophenoxy)-4-(4-propoxyphenyl)thiazol-2-yl)-5-nitrothiophene-2-carboxamide]",31%,820 nM,1510 nM,1230 nM,4870 nM,1960 nM,4740 nM
"CCOc1ccc(-c2nc(NC(=O)c3ccc([N+](=O)[O-])s3)sc2Oc2ccc(C(C)(C)C)cc2)cc1 [Compound 5-29, N-(5-(4-(tert-butyl)phenoxy)-4-(4-ethoxyphenyl)thiazol-2-yl)-5-nitrothiophene-2-carboxamide]",42%,1840 nM,3860 nM,3340 nM,9950 nM,3240 nM,9120 nM
"CCCOc1ccc(-c2nc(NC(=O)c3ccc([N+](=O)[O-])s3)sc2Oc2ccc(F)cc2)cc1 [Compound 5-30, N-(5-(4-fluorophenoxy)-4-(4-propoxyphenyl)thiazol-2-yl)-5-nitrothiophene-2-carboxamide]",40%,920 nM,2230 nM,530 nM,2820 nM,700 nM,2150 nM
"O=C(Nc1nc(-c2ccc(F)cc2)c(Oc2ccccc2OC(F)(F)F)s1)c1ccc([N+](=O)[O-])s1 [Compound 5-32, N-(4-(4-fluorophenyl)-5-(2-(trifluoromethoxy)phenoxy)thiazol-2-yl)-5-nitrothiophene-2-carboxamide]",48%,460 nM,2170 nM,400 nM,2260 nM,690 nM,1730 nM
"CCCOc1ccc(-c2nc(NC(=O)c3ccc([N+](=O)[O-])s3)sc2Oc2ccc(C(F)(F)F)cc2Cl)cc1 [Compound 5-38, N-(5-(2-chloro-4-(trifluoromethyl)phenoxy)-4-(4-propoxyphenyl)thiazol-2-yl)-5-nitrothiophene-2-carboxamide]",41%,370 nM,1710 nM,770 nM,3220 nM,570 nM,1430 nM
"CCCOc1ccc(-c2nc(NC(=O)c3ccc([N+](=O)[O-])s3)sc2Oc2ccc(C#N)cc2)cc1 [Compound 5-39, N-(5-(4-cyanophenoxy)-4-(4-propoxyphenyl)thiazol-2-yl)-5-nitrothiophene-2-carboxamide]",56%,890 nM,5530 nM,1490 nM,6540 nM,230 nM,1160 nM
"CCCOc1ccc(-c2nc(NC(=O)c3ccc([N+](=O)[O-])o3)sc2Oc2ccccc2)cc1 [Compound 5-48, 5-nitro-N-(5-phenoxy-4-(4-propoxyphenyl)thiazol-2-yl)furan-2-carboxamide]",37%,5220 nM,9410 nM,1810 nM,–,1400 nM,–
"CCCCOc1ccc(-c2nc(NC(=O)c3ccc([N+](=O)[O-])s3)sc2Oc2ccccc2)cc1 [Compound 5-56, N-(4-(4-butoxyphenyl)-5-phenoxythiazol-2-yl)-5-nitrothiophene-2-carboxamide]",40%,550 nM,2310 nM,1540 nM,9320 nM,700 nM,1550 nM
"CCC(C)(C)c1ccc(Oc2sc(NC(=O)c3ccc([N+](=O)[O-])s3)nc2-c2ccc(F)cc2)cc1 [Compound 5-62, N-(4-(4-fluorophenyl)-5-(4-(tert-pentyl)phenoxy)thiazol-2-yl)-5-nitrothiophene-2-carboxamide]",45%,450 nM,1160 nM,760 nM,2250 nM,590 nM,1240 nM
"CCC(C)(C)c1ccc(-c2nc(NC(=O)c3ccc([N+](=O)[O-])s3)sc2Oc2ccc(F)cc2)cc1 [Compound 5-63, N-(5-(4-fluorophenoxy)-4-(4-(tert-pentyl)phenyl)thiazol-2-yl)-5-nitrothiophene-2-carboxamide]",37%,430 nM,950 nM,880 nM,1850 nM,680 nM,1110 nM
"CCCCOc1ccc(Oc2sc(NC(=O)c3ccc([N+](=O)[O-])s3)nc2-c2ccc(F)cc2)cc1 [Compound 5-66, N-(5-(4-butoxyphenoxy)-4-(4-fluorophenyl)thiazol-2-yl)-5-nitrothiophene-2-carboxamide]",43%,520 nM,760 nM,950 nM,2810 nM,390 nM,1130 nM
"CCCCCCOc1ccc(-c2nc(NC(=O)c3ccc([N+](=O)[O-])s3)sc2Oc2ccccc2)cc1 [Compound 5-67, N-(4-(4-(hexyloxy)phenyl)-5-phenoxythiazol-2-yl)-5-nitrothiophene-2-carboxamide]",46%,620 nM,690 nM,1030 nM,1910 nM,790 nM,1350 nM
"CCC(C)(C)c1ccc(Oc2sc(NC(=O)c3ccc([N+](=O)[O-])s3)nc2-c2ccc(C(F)(F)F)cc2)cc1 [Compound 5-71, 5-nitro-N-(5-(4-(tert-pentyl)phenoxy)-4-(4-(trifluoromethyl)phenyl)thiazol-2-yl)thiophene-2-carboxamide]",49%,630 nM,660 nM,810 nM,1720 nM,1530 nM,2400 nM
"CC(C)(C)c1ccc(-c2nc(NC(=O)c3ccc([N+](=O)[O-])s3)sc2Oc2ccc(C(F)(F)F)cc2)cc1 [Compound 5-74, N-(4-(4-(tert-butyl)phenyl)-5-(4-(trifluoromethyl)phenoxy)thiazol-2-yl)-5-nitrothiophene-2-carboxamide]",33%,1160 nM,1680 nM,690 nM,1290 nM,720 nM,1300 nM
"CC(C)(C)c1ccc(-c2nc(NC(=O)c3ccc([N+](=O)[O-])s3)sc2Oc2ccccc2C(F)(F)F)cc1 [Compound 5-75, N-(4-(4-(tert-butyl)phenyl)-5-(2-(trifluoromethyl)phenoxy)thiazol-2-yl)-5-nitrothiophene-2-carboxamide]",34%,800 nM,1310 nM,730 nM,1670 nM,670 nM,1110 nM
